In patent US20110159479A1, “GENETIC POLYMORPHISMS IN THE CYTOCHROME P450 GENE WITH CLOPIDOGREL RESISTANCE” (Industry-University Cooperation Foundation Yonsei University, priority 2009, published 2011):

Tests used:
[1] = VerifyNow P2Y12 platelet-function assay in CAD patients with drug-eluting stents on clopidogrel; assay type: in vivo, human
From the text: (§1) From October 2006 to July 2007, 450 consecutive patients who underwent successful percutaneous coronary intervention (PCI) with drug-eluting stents (DES) were randomly assigned to treatment with dual anti-platelet regimens (aspirin plus clopidogrel, n=225) or triple antiplatelet regimens (aspirin plus clopidogrel plus cilostazol, n=225). Inclusion criteria were: symptomatic coronary artery disease (CAD) or documented myocardial ischemia (by treadmill exercise testing or sestamibi scan); angiographic evidence of 50% diameter stenosis and post procedure Thromobolysis In Myocardial Infarction (TIMI) flow grade 3. Exclusion criteria were: contraindication to antiplatelet agents; previous allergy or intolerance of aspirin or clopidogrel; treatment with warfarin; active bleeding; known platelet dysfunction; abnormal platelet count (<100,000/mm^3). Patients received a 300 mg loading dose of clopidogrel at least 12 hours before the stenting. Stents were deployed according to standard techniques. The maintenance dose for each antiplatelet agent was 100 mg once a day for aspirin, 75 mg once a day for clopidogrel, and 100 mg twice a day for cilostazol. Among the enrolled patients, 387 patients were analyzed for clopidogrel resistance by VerifyNow P2Y12 system (Accumetrics, San Diego, Calif.), and blood sampling for genetic analysis.
(§2) The VerifyNow P2Y12 system is a rapid platelet-function, cartridge based assay designed to directly measure the effects of clopidogrel on the P2Y12 receptor. Results are expressed as P2Y12 reaction units (PRUs) and percentage inhibition. PRU reports the amount of P2Y12 receptor mediated aggregation.
(§3) Values were expressed as mean±SD. Chi-square test for goodness of fit was used to verify agreement with Hardy-Weinberg equilibrium (HWE) using Fisher's exact test. Comparison of discrete variables was performed using the Chi-square test analysis or Fisher's exact test. Comparison of continuous variables between the two study groups was performed using the Student's t-test. Multivariate logistic regression analysis was performed to determine the independent association of CYP gene polymorphisms with clopidogrel resistance. Odds ratios (ORs) were calculated with 95% confidence intervals (CIs) for the relative risk of clopidogrel resistance related to genotypes. Statistical analysis was performed with SPSS 15.0 (SPSS Inc, Chicago, Ill.). All values of P<0.05 were considered statistically significant.

[2] = molecular target: T1, P2Y12 receptor (Homo sapiens, UniProt Q9H244); experiment: as above; assay type: in vivo; details: for % inhibition of platelet activity: mean ± SD; for Rate of clopidogrel resistance: subjects with CYP2C19*3 A allele
T1 construct: PRU reports the amount of P2Y12 receptor mediated aggregation; from tissue; host or cells: platelets in blood of patients (VerifyNow P2Y12 system, Accumetrics)
T1 sequence (Q9H244 whole entry): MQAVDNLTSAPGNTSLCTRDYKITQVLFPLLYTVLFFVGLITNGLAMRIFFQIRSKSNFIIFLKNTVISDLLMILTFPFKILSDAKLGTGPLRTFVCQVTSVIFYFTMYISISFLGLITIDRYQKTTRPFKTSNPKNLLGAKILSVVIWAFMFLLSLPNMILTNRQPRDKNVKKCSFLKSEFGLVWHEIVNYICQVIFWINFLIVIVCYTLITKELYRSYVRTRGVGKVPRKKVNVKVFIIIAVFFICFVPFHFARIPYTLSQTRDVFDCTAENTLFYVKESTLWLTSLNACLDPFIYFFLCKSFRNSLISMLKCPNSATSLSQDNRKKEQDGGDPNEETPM
From the text: as §1, §2, §3

[3] = patients following coronary stenting; previous reports; cited from earlier work

In the case of O=C1CCc2cc(OCCCCc3nnnn3C3CCCCC3)ccc2N1 [Cilostazol], the “Patients on cilostazol, number (percentage of group)” value ([1]; clopidogrel resistant group (Resistance)) is reported as 32 (28.6%) and the “Patients on cilostazol, number (percentage of group)” value ([1]; clopidogrel responsive group (No resistance)) is reported as 158 (57.5%).
For COC(=O)[C@H](c1ccccc1Cl)N1CCc2sccc2C1 [clopidogrel, (+)-(S)-methyl 2-(2-chlorophenyl)-2-(6,7-dihydrothieno[3,2-c]pyridin-5(4H)-yl)acetate], the “Clopidogrel resistance (percent inhibition <20%), proportion of patients” value ([2]; 387 CAD patients with DES insertion, 112 patients) was 28.9%, the “% inhibition of platelet activity” value ([2]; CYP1A1 rs1048943, codominant, genotype AA (211)) was 32.5 ± 22.3% and the “% inhibition of platelet activity” value ([2]; CYP1A1 rs1048943, codominant, genotype AG (153)) was 37.7 ± 24.2%. The “% inhibition of platelet activity” value ([2]; CYP1A1 rs1048943, codominant, genotype GG (20)) was 38.7 ± 24.4%, the “% inhibition of platelet activity” value ([2]; CYP1A1 rs1048943, dominant, genotype AA (210)) was 32.5 ± 22.3% and the “% inhibition of platelet activity” value ([2]; CYP1A1 rs1048943, dominant, genotype AG/GG (170)) was 37.8 ± 24.2%. The “% inhibition of platelet activity” value ([2]; CYP1A1 rs1048943, recessive, genotype AA/AG (361)) was 34.7 ± 23.2%, the “% inhibition of platelet activity” value ([2]; CYP1A1 rs1048943, recessive, genotype GG (19)) was 38.7 ± 24.4% and the “% inhibition of platelet activity” value ([2]; CYP2C19*2 rs4244285, codominant, genotype AA (39)) was 30.9 ± 21.7%. For the same molecule, the “% inhibition of platelet activity” value ([2]; CYP2C19*2 rs4244285, codominant, genotype GA (133)) was 32.5 ± 21.6%, the “% inhibition of platelet activity” value ([2]; CYP2C19*2 rs4244285, codominant, genotype GG (210)) was 37.2 ± 24.5% and the “% inhibition of platelet activity” value ([2]; CYP2C19*2 rs4244285, dominant, genotype GA/AA (172)) was 32.1 ± 21.6%. For the same molecule, the “% inhibition of platelet activity” value ([2]; CYP2C19*2 rs4244285, dominant, genotype GG (210)) was 37.2 ± 24.5%, the “% inhibition of platelet activity” value ([2]; CYP2C19*2 rs4244285, recessive, genotype AA (39)) was 30.9 ± 21.7% and the “% inhibition of platelet activity” value ([2]; CYP2C19*2 rs4244285, recessive, genotype GG/GA (343)) was 35.3 ± 23.5%. For the same molecule, the “% inhibition of platelet activity” value ([2]; CYP2C19*3 rs4986893, codominant, genotype AA (2)) was 17.0 ± 24.0%, the “% inhibition of platelet activity” value ([2]; CYP2C19*3 rs4986893, codominant, genotype GA (68)) was 24.9 ± 20.1% and the “% inhibition of platelet activity” value ([2]; CYP2C19*3 rs4986893, codominant, genotype GG (316)) was 36.9 ± 23.4%. The “% inhibition of platelet activity” value ([2]; CYP2C19*3 rs4986893, dominant, genotype GA/AA (70)) was 24.6 ± 20.0%, the “% inhibition of platelet activity” value ([2]; CYP2C19*3 rs4986893, dominant, genotype GG (316)) was 36.9 ± 23.4% and the “% inhibition of platelet activity” value ([2]; CYP2C19*3 rs4986893, recessive, genotype AA (2)) was 17.0 ± 24.0%. For the same molecule, the “% inhibition of platelet activity” value ([2]; CYP2C19*3 rs4986893, recessive, genotype GG/GA (384)) was 34.8 ± 23.3%, the “Rate of clopidogrel resistance” value ([2]; dual regimen therapy (aspirin plus clopidogrel)) was 57.6% and the “Rate of clopidogrel resistance” value ([2]; triple regimen therapy (aspirin plus clopidogrel plus cilostazol)) was 37.1%. For the same molecule, the “Prevalence of clopidogrel nonresponsiveness” value [3] was 5-44%.
